The values that follow come from the RepoRT retention time repository (doi:10.1016/j.jchromb.2020.122105).

What all share (conditions): stereoisomer not certain
Data set [1] can be described thus: RP, Waters CORTECS T3, 100 × 2.1 mm, 2.7 µm, 0.2 mL/min, estimated dead time 1.1 min; A: water + 0.1% formic acid, pH 3; B: methanol + 0.1% formic acid, pH 3; gradient (min/%B) 0/0 1/0 6/5 30/100 35/100 35.1/0 40/0.
A short description of data set [2]: RP, Waters CORTECS T3, 100 × 2.1 mm, 2.7 µm, 0.3 mL/min, estimated dead time 0.73 min; A: water + 0.1% formic acid, pH 3; B: methanol + 0.1% formic acid, pH 3; gradient (min/%B) 0/0 1/0 6/5 30/100 35/100 35.1/0 40/0.
A short description of data set [3]: RP, Waters CORTECS T3, 100 × 2.1 mm, 2.7 µm, 0.2 mL/min, estimated dead time 1.1 min; A: water + 0.1% formic acid, pH 3; B: methanol + 0.1% formic acid, pH 3; gradient (min/%B) 0/5 5/5 25/95 25.1/100 35/100 35.1/5 45/5.
Data set [4] in a line: RP, Waters CORTECS T3, 100 × 2.1 mm, 2.7 µm, 0.25 mL/min, estimated dead time 0.88 min; A: water + 0.1% formic acid, pH 3; B: methanol + 0.1% formic acid, pH 3; gradient (min/%B) 0/5 5/5 25/95 25.1/100 35/100 35.1/5 45/5.
A short description of data set [5]: HILIC, Waters XBridge BEH Amide, 100 × 2.1 mm, 2.5 µm, 0.5 mL/min, estimated dead time 0.44 min; A: water + 0.1% acetic acid + 10 mM ammonium acetate, pH 4; B: 5% water + 95% acetonitrile + 0.1% acetic acid + 10 mM ammonium acetate, pH 4; gradient (min/%B) 0/95 5/95 20/57 25/57 30/95 40/95.
The nature of data set [6]: RP, Waters ACQUITY UPLC BEH C18, 100 × 2.1 mm, 1.7 µm, 0.2 mL/min, estimated dead time 1.1 min; A: water + 0.025% formic acid + 20 mM ammonium acetate + 0.055% ammonium hydroxide, pH 7; B: methanol; gradient (min/%B) 0/5 5/5 25/100 30/100 30.1/5 35/5.
Data set [7] can be described thus: RP, Waters ACQUITY UPLC BEH C18, 100 × 2.1 mm, 1.7 µm, 0.2 mL/min, estimated dead time 1.1 min; A: water + 0.1% formic acid, pH 3; B: methanol + 0.1% formic acid, pH 3; gradient (min/%B) 0/5 5/5 25/100 30/100 30.1/5 35/5.
Data set [8] in a line: RP, Waters CORTECS T3, 100 × 2.1 mm, 2.7 µm, 0.3 mL/min, estimated dead time 0.73 min; A: water + 0.1% formic acid, pH 3; B: methanol + 0.1% formic acid, pH 3; gradient (min/%B) 0/0 5/0 25/100 30/100 30.1/0 35/0.
Data set [9] in a line: HILIC, Merck SeQuant ZIC-HILIC, 150 × 2.1 mm, 5 µm, 0.75 mL/min, estimated dead time 0.44 min; A: water + 0.1% acetic acid + 10 mM ammonium acetate, pH 4; B: 5% water + 95% acetonitrile + 0.1% acetic acid + 10 mM ammonium acetate, pH 4; gradient (min/%B) 0/95 5/95 20/57 25/57 30/95 40/95.
Data set [10] in a line: RP, Waters ACQUITY UPLC BEH C18, 100 × 2.1 mm, 1.7 µm, 0.1 mL/min, estimated dead time 2.2 min; A: water + 0.1% formic acid, pH 3; B: methanol + 0.1% formic acid, pH 3; gradient (min/%B) 0/5 5/5 25/95 25.1/100 35/100 35.1/5 45/5.
A short description of data set [11]: RP, Thermo Scientific Hypercarb, 150 × 2.1 mm, 5 µm, 0.1 mL/min, estimated dead time 3.3 min; A: water + 0.1% formic acid, pH 3; B: methanol + 0.1% formic acid, pH 3; gradient (min/%B) 0/5 5/5 20/100 35/100 35.1/5 45/5.
The nature of data set [12]: RP, Waters ACQUITY UPLC BEH C18, 100 × 2.1 mm, 1.7 µm, 0.2 mL/min, estimated dead time 1.1 min; A: water + 0.025% formic acid + 20 mM ammonium acetate + 0.055% ammonium hydroxide, pH 7; B: methanol; gradient (min/%B) 0/5 5/5 25/100 30/100 30.1/5 35/5. The source holds these as a separate data set.
The nature of data set [13]: RP, Waters CORTECS T3, 100 × 2.1 mm, 2.7 µm, 0.3 mL/min, estimated dead time 0.73 min; A: water + 0.1% formic acid, pH 3; B: methanol + 0.1% formic acid, pH 3; gradient (min/%B) 0/5 5/5 25/100 30/100 30.1/5 35/5.
Data set [14] can be described thus: RP, Waters CORTECS T3, 100 × 2.1 mm, 2.7 µm, 0.3 mL/min, estimated dead time 0.73 min; A: water + 0.1% formic acid, pH 3; B: methanol + 0.1% formic acid, pH 3; gradient (min/%B) 0/0 5/0 25/100 30/100 30.1/0 35/0. This is another data set of the same source.
Data set [15] can be described thus: RP, Waters CORTECS T3, 100 × 2.1 mm, 2.7 µm, 0.2 mL/min, estimated dead time 1.1 min; A: water + 0.1% formic acid, pH 3; B: methanol + 0.1% formic acid, pH 3; gradient (min/%B) 0/0 1/0 6/5 30/100 35/100 35.1/0 40/0. This is another data set of the same source.
Data set [16] is described as follows: RP, Waters CORTECS T3, 100 × 2.1 mm, 2.7 µm, 0.1 mL/min, estimated dead time 2.2 min; A: water + 0.1% formic acid, pH 3; B: methanol + 0.1% formic acid, pH 3; gradient (min/%B) 0/0 1/0 6/5 30/100 35/100 35.1/0 40/0.
A short description of data set [17]: RP, Waters CORTECS T3, 100 × 2.1 mm, 2.7 µm, 0.15 mL/min, estimated dead time 1.5 min; A: water + 0.1% formic acid, pH 3; B: methanol + 0.1% formic acid, pH 3; gradient (min/%B) 0/0 1/0 6/5 30/100 35/100 35.1/0 40/0.
A short description of data set [18]: RP, Waters CORTECS T3, 100 × 2.1 mm, 2.7 µm, 0.3 mL/min, estimated dead time 0.73 min; A: water + 0.1% formic acid, pH 3; B: methanol + 0.1% formic acid, pH 3; gradient (min/%B) 0/0 1/0 6/5 30/100 35/100 35.1/0 40/0. The source holds these as a separate data set.
Data set [19] is described as follows: RP, Waters CORTECS T3, 100 × 2.1 mm, 2.7 µm, 0.25 mL/min, estimated dead time 0.88 min; A: water + 0.1% formic acid, pH 3; B: methanol + 0.1% formic acid, pH 3; gradient (min/%B) 0/0 1/0 6/5 30/100 35/100 35.1/0 40/0.
The nature of data set [20]: RP, Waters CORTECS T3, 100 × 2.1 mm, 2.7 µm, 0.1 mL/min, estimated dead time 2.2 min; A: water + 0.1% formic acid, pH 3; B: methanol + 0.1% formic acid, pH 3; gradient (min/%B) 0/5 5/5 25/95 25.1/100 35/100 35.1/5 45/5.
A short description of data set [21]: RP, Waters CORTECS T3, 100 × 2.1 mm, 2.7 µm, 0.3 mL/min, estimated dead time 0.73 min; A: water + 0.1% formic acid, pH 3; B: methanol + 0.1% formic acid, pH 3; gradient (min/%B) 0/5 5/5 25/95 25.1/100 35/100 35.1/5 45/5.
Data set [22] can be described thus: RP, Waters ACQUITY UPLC BEH C18, 100 × 2.1 mm, 1.7 µm, 0.1 mL/min, estimated dead time 2.2 min; A: water + 0.1% formic acid, pH 3; B: methanol + 0.1% formic acid, pH 3; gradient (min/%B) 0/5 5/5 25/100 30/100 30.1/5 35/5.
The nature of data set [23]: RP, Waters CORTECS T3, 100 × 2.1 mm, 2.7 µm, 0.2 mL/min, estimated dead time 1.1 min; A: water + 0.045% formic acid + 0.11% ammonium hydroxide, pH 7; B: methanol; gradient (min/%B) 0/5 5/5 25/95 25.1/100 35/100 35.1/5 45/5.
A short description of data set [24]: RP, Waters ACQUITY UPLC BEH C18, 100 × 2.1 mm, 1.7 µm, 0.1 mL/min, estimated dead time 2.2 min; A: water + 0.045% formic acid + 0.11% ammonium hydroxide, pH 7; B: methanol; gradient (min/%B) 0/5 5/5 25/95 25.1/100 35/100 35.1/5 45/5.

In the case of `O=c1ccn(C2CC(O)C(COP(=O)(O)O)O2)c(=O)[nH]1` (stereo not drawn) [2'-DEOXYURIDINE 5'-MONOPHOSPHATE], the LC retention time is 1.35 min in data set [1]; 0.92 min in data set [2]; 2.67 min in data set [3]; 1.08 min in data set [4]; 13.3 min in data set [5].
Take `CC(C)=CC(=O)SCCNC(=O)CCNC(=O)C(O)C(C)(C)COP(=O)(O)OP(=O)(O)OCC1OC(n2cnc3c(N)ncnc32)C(O)C1OP(=O)(O)O` (stereo not drawn) [3-METHYLCROTONYL-COA]: the LC retention time in data set [6] was 8.78 min.
Turning to `O=c1[nH]cc(CO)c(=O)[nH]1` [5-HYDROXYMETHYLURACIL], the LC retention time in data set [2] is 0.9 min; in data set [7], 1.41 min; in data set [4] it was 1.06 min.
Consider `O=C(O)CCCCCCCCCO` [10-HYDROXYDECANOATE], for which the LC retention time was 17.3 min in data set [8], 18.3 min in [7], 17.7 min in [4] and 1.13 min in [9].
In the case of `Nc1ncnc2c1ncn2C1OC(COP(=O)(O)OP(=O)(O)OC2OC(CO)C(O)C(O)C2O)C(O)C1O` (stereo not drawn) [ADENOSINE 5'-DIPHOSPHOGLUCOSE], the LC retention time is 0.89 min in data set [8]; 1.35 min in [1]; 0.92 min in [2]; 1.56 min in [7]; 1.08 min in [4].
In the case of `OCC1OC(OCC2OC(OC3(CO)OC(CO)C(O)C3O)C(O)C(O)C2O)C(O)C(O)C1O` [D-(+)-RAFFINOSE], the LC retention time in data set [3] and in data set [10] was 2.67 min each time.
Consider `Cn1cncc1CC(NC(=O)CCN)C(=O)O` [L-ANSERINE], for which the LC retention time is 2.43 min in data set [3]; 4.86 min in data set [11]; 1.41 min in data set [6]; 1.42 min in data set [12]; 15 min in [5].
Turning to `COc1ccc2[nH]cc(CCNC(C)=O)c2c1` [MELATONIN], the LC retention time was 12.8 min in data set [13]; 13.6 min in data set [14]; 16.2 min in [15]; 14.4 min in data set [16]; 17.5 min in [17]; 14.8 min in [18]. In addition, the LC retention time is 15.4 min in data set [19]; 17.7 min in data set [20]; 13.1 min in data set [21]; 17.6 min in [22]; 14.5 min in [23]; 17.8 min in data set [24]. Besides, the LC retention time in data set [6] was 14.4 min; in data set [12], 14.4 min; in [5] it was 0.63 min.
For `CC(=O)NCC(=O)O` [N-ACETYLGLYCINE], the LC retention time was 0.95 min in [2], 1.46 min in data set [7], 1.11 min in data set [4] and 11.2 min in [5].
As for `O=CNCC(=O)O` [N-FORMYLGLYCINE], the LC retention time in data set [8] was 0.91 min.
Consider `Nc1ncnc2c1ncn2[C@@H]1O[C@H](CSCC[C@H]([NH3+])C(=O)[O-])[C@@H](O)[C@H]1O` [S-(5'-ADENOSYL)-L-HOMOCYSTEINE], for which the LC retention time in data set [15] was 1.34 min; in [19], 1.09 min; in data set [3], 2.67 min; in [21], 0.9 min; in data set [7], 1.38 min; in [22] it was 2.74 min. Moreover, the LC retention time in data set [10] is 2.67 min; in data set [9], 12.3 min.
Take `O=c1[nH]c(=O)c2ncn(C3OC(COP(=O)(O)O)C(O)C3O)c2[nH]1` (stereo not drawn) [XANTHOSINE 5'-MONOPHOSPHATE]: the LC retention time in [8] is 0.93 min; in [1] it was 1.35 min; in data set [2], 0.92 min; in [3] it was 2.67 min; in data set [4] it was 1.08 min.
